Several values for one entry are separate records, joined by “and”; a condition that tells them apart may be missing. Equal entries are not always repeated. Activity calls are given as the source filed them. How the calls were made is not given here.

The target in this experiment is Perilipin-1 (Homo sapiens) (UniProt O60240). The experiment is described as follows: ABHD5 and perilipin-1 interaction blockers – biochemical, luminescence, counter-screen for ABHD5-PLIN5 interaction inhibitor project, dose response (AID 651672).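 Further: split Gaussia luciferase complementation between ABHD5 and PLIN1 fusion fragments.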 As to conditions: ABHD5-PLIN1 interaction. For orientation: A counterscreen serves to expose hits that act by an unwanted route or on another target.
Chain of Perilipin-1 (Homo sapiens) (O60240 whole entry, looked up, the tested form may be a part): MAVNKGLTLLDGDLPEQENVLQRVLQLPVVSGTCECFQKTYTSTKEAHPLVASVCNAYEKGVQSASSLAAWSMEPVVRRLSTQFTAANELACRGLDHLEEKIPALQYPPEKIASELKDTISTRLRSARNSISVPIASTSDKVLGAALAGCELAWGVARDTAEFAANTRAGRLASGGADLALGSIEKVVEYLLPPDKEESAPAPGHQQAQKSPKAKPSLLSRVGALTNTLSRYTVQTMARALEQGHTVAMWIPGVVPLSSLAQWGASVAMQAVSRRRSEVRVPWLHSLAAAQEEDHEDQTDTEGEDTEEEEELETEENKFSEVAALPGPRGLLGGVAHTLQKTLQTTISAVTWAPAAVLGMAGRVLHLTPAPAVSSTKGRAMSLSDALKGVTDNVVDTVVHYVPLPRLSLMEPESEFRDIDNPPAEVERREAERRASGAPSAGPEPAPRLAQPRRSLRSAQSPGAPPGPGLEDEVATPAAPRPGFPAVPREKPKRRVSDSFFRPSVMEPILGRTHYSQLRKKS
As usually defined, the IC50 is the midpoint of a concentration-inhibition curve. For `COc1ccc(NC(=O)C(c2ccccc2)n2c(=O)c(-c3ccco3)nc3ccccc32)cc1` (configuration not stated), the IC50 was 8.47 µM.
Next, `COC(=O)c1ccc(Cn2cc(/C=C\[N+](=O)[O-])c3ccccc32)o1`: > 13.3 µM (inactive).
Next, `COc1ccc(NC(=O)C(c2cccc3ccccc23)n2c(=O)c(-c3ccco3)nc3ccccc32)cc1` (configuration not stated): “inactive”; `O=c1nc(/C=C/c2ccc(Cl)cc2Cl)cc(C(F)(F)F)[nH]1`: 2.94 µM.
For the molecule `COCCN(CCOC)c1nc(N)c2c(N)nc3c(c2c1C#N)CC(=O)N3Cc1ccc(Cl)cc1`, the IC50 is 6.57 µM.
Next, `COC(=O)c1cc(=O)n(Cc2ccco2)c(=Nc2ccc(F)cc2)s1`: 3.19 µM; `COc1ccccc1C=CC(=O)C=Cc1ccccc1OC`: 5.34 µM.
For `CCCCCNC(=O)C(C1CC1)n1c(=O)c(-c2ccco2)nc2ccccc21` (configuration not stated) the value was 6.58 µM; for `COCCNC(=O)/C(C#N)=C/c1cccc(/C=C(\C#N)C(=O)NCCOC)c1`, 0.804 µM.
Next, `CC(O)CC(=O)OC[C@]12CC[C@H]3[C@@](C)(CC[C@H]4C(C)(C)CCC[C@]34C)[C@@H]1CC(C1=CC(=O)OC1O)O2` (some centres not stated): 1.25 µM; `N#Cc1ccccc1OCc1cn(CC(=O)c2ccc(O)cc2)nn1`: 4.12 µM; `COc1cc(C)c2sc3ccccc3c(=O)c2c1NCCN(C)C`: 6.3 µM.
`O=C(NCc1ccccc1)C(c1cccc2ccccc12)n1c(=O)c(-c2ccco2)nc2ccccc21` (configuration not stated): the IC50 was 2.06 µM.
For `COc1ccc(-c2cc(N)n(S(=O)(=O)c3c(F)c(F)c(F)c(F)c3F)n2)cc1OC` the value was 9.95 µM; for `O=C1NC(=O)N(c2ccccc2F)C(=O)/C1=C/c1ccc(Oc2ccc([N+](=O)[O-])cn2)cc1`, 2.73 µM.
For `CS(=O)(=O)c1ccc(C(=O)NCCN2C(=O)S/C(=C\c3cccnc3)C2=O)cc1[N+](=O)[O-]` the value was 5.14 µM; for `CN(C)CCOC1(Cc2ccc(F)cc2)CCC(C(C)(C)C)CC1` (configuration not stated), 9.95 µM; for `O=C1/C(=C/c2cccnc2)CC/C1=C\c1cccnc1`, 5.83 µM.
Turning to `Cc1ccc(O)c(C(=O)C=Cc2ccccc2)c1`, the IC50 was 2.46 µM.
For `O=C(/C=C/Sc1ccccc1)c1ccc(Cl)cc1`, the IC50 was 3.81 µM.
Regarding `CN(C)c1ccc(Cc2cc3c(O)ccc(O)c3cc(Cc3ccc(N(C)C)cc3)c2=O)cc1`, the IC50 was 2.4 µM.
Next, `Cc1nnc(NC(=O)c2nc(S(=O)(=O)Cc3ccccc3C)ncc2Cl)s1`: 3.92 µM; `CN(C)CCCN(C(=O)CCc1ccccc1)c1nc2ccc(Br)cc2s1`: 8.53 µM; `CCOc1cc(N)c(Cl)cc1C(=O)NCC1CN(Cc2ccc(F)cc2)CCO1` (configuration not stated): 1.97 µM.
Next, `O=C(Nc1ccc2c(c1)OCCO2)C(c1ccccc1F)n1c(=O)c(-c2ccco2)nc2ccccc21` (configuration not stated): 9.21 µM; `CN1CCC[C@@H]1CCO[C@](C)(c1ccccc1)c1ccc(Cl)cc1`: “inactive”; `NC(=NCCCCCCN=C(N)/N=C(\N)Nc1ccc(Cl)cc1)/N=C(\N)Nc1ccc(Cl)cc1`: 2.86 µM and 2.31 µM.
For `Cc1ccc(S(=O)(=O)N2C[C@H]3n4c(=O)ccc(=O)n4C[C@H](OC(=O)Nc4cccs4)[C@@]3(O)C2)cc1` the value was 6.5 µM; for `CCC(=O)Nc1cccc(C(=O)/C=C/c2ccccc2)c1`, 1.99 µM.
Turning to `COc1ccc(C(C(=O)NC(C)(C)C)n2c(=O)c(-c3ccco3)nc3ccccc32)cc1` (configuration not stated), the IC50 was 1.82 µM.
Next, `Cc1ccc(C)c(/C=C/C(=O)c2ccccc(=O)c2O)c1`: 5.58 µM.
As to `CC(=O)Oc1c(Br)cc(N(C(C)=O)S(=O)(=O)c2ccccc2)c2ccccc12`, the IC50 was 8.8 µM.
Next, `CSc1nnc(NC(=O)c2nc(S(=O)(=O)Cc3ccc(C)cc3)ncc2Cl)s1`: 3.1 µM.
Next, `O=C(/C=C/c1ccc2c(c1)OCCCO2)c1ccccc1O`: 5.52 µM; `O=C(NCc1ccccc1)C(c1ccc(-c2ccccc2)cc1)n1c(=O)c(-c2ccco2)nc2ccccc21` (configuration not stated): 3.44 µM; `CCC(C(=O)OCCN(CC)CC)c1ccccc1` (configuration not stated): 2.53 µM.
For `COc1ccc(OCc2cn(CC(=O)c3ccc(O)cc3)nn2)cc1` the value was 3.77 µM; for `CN1C(=O)/C(=C/C=C/c2ccco2)C(=O)NC1=S`, 5.88 µM; for `CC(CCc1ccco1)NC(=O)CCc1nnc2ccc(NCc3ccccc3Cl)nn12` (configuration not stated), 2.03 µM.
As for `Cc1ccc(/C=C/C(=O)c2cc(Br)ccc2OC(=O)c2ccco2)cc1`, the IC50 is 0.684 µM.
For `O=C(/C(=C/c1ccccc1)n1cncn1)c1ccc(Cl)cc1Cl` the value was 2.3 µM.
For `C=CC(=O)N1c2ccccc2Sc2ccc(NC(=O)OCC)cc21` the value was 5.01 µM; for `O=S(=O)(NC1=NCCCCC1)c1ccc2sc(NS(=O)(=O)c3ccc4ccccc4c3)nc2c1`, “inactive”; for `O=c1c(-c2ccco2)nc2ccccc2n1C(CCc1ccccc1)c1nc2ccccc2[nH]1` (configuration not stated), 2.32 µM.
Next, `Cc1cccc(C)c1NC(=O)C(c1ccc(C#N)cc1)n1c(=O)c(-c2ccco2)nc2ccccc21` (configuration not stated): 2.66 µM.
As for `COc1ccc(/C=C/C(=O)c2cc(F)ccc2OC(=O)c2ccc(OC)c(OC)c2)cc1OC`, the IC50 was 2.44 µM.
As for `Cc1ccc(S(=O)(=O)N2C[C@@]3(O)Cn4c(=O)ccc(=O)n4C[C@@]3(OC(=O)NCC3CCCCC3)C2)cc1`, the IC50 is 6.22 µM.
Next, `CCCCC(=O)NC(c1cccc([N+](=O)[O-])c1)c1ccc2cccnc2c1O` (configuration not stated): “inactive”; `CCOC(=O)c1c(NC(=O)/C=C/C(=O)O)sc(C)c1-c1ccc(C(C)(C)C)cc1`: 4.81 µM; `CC(=O)Oc1c(Cl)cc(N(C(C)=O)S(=O)(=O)c2ccccc2)c2ccccc12`: 3.88 µM.
For `Cc1ccc(C(=O)c2c(C)oc3c2C(=O)C(=O)c2ccccc2-3)cc1` the value was 5.4 µM; for `CCC(C)NC(=O)Nc1ccc2c(c1)N(C)C(=O)c1ccccc1S2` (configuration not stated), 3.7 µM.
Turning to `COc1ccc(NC(=S)N(CCCN2CCCC2)Cc2cccn2Cc2ccc(Cl)cc2)cc1Cl`, the IC50 entry is “inactive”.
Next, `O=C(/C=C/c1ccc(NC(=O)c2ccccc2-c2ccccc2C(=O)O)cc1)c1ccccc1`: 8.03 µM.
Regarding `O=C(NC1CCCCC1)C(c1ccccc1F)n1c(=O)c(-c2ccco2)nc2ccccc21` (configuration not stated), the IC50 is 1.9 µM.
Next, `Cc1cccc(NC(=O)CSc2nnc(-c3ccco3)c(-c3ccco3)n2)c1`: 1.92 µM; `O=C(NC1CCCCC1)C(C1CC1)n1c(=O)c(-c2ccco2)nc2ccccc21` (configuration not stated): 3.11 µM.
For `CC1CN(Cc2c(O)ccc3c2oc(=O)c2ccccc23)CC(C)O1` (configuration not stated) the value was 2.92 µM.
With `CCCc1nnc(NC(=O)c2nc(S(=O)(=O)Cc3cccc(C)c3)ncc2Cl)s1`, the IC50 is 2.83 µM.
Next, `C#CCN(C[C@@H]1[C@@H](OC(=O)Nc2cccs2)[C@@H](OC(=O)Nc2cccs2)Cn2c(=O)ccc(=O)n21)S(=O)(=O)c1ccc(C)cc1`: 2.33 µM; `Cc1ccc(C(=O)c2coc3c2C(=O)C(=O)c2ccccc2-3)cc1`: 3.88 µM; `O=C(NC1CCCCC1)C(c1cc2ccccc2o1)n1c(=O)c(-c2ccco2)nc2ccccc21` (configuration not stated): 1.29 µM.
Next, `COc1ccc(/C=C\C(=O)CC(O)(c2ccccc2)C(F)(F)F)cc1` (configuration not stated): 2.68 µM.
For `O=C1NC(=S)NC(=O)C12C(c1ccccc1)NC(=S)NC2c1ccccc1` (configuration not stated), the IC50 is 4.34 µM.
Next, `CCCCn1c(SCC(=O)NCc2ccco2)nnc1-c1ccoc1C`: 4.71 µM; `COc1cc(C(C)=O)ccc1OCc1cn(CC(=O)c2ccc(O)cc2)nn1`: 4.59 µM; `N#Cc1ncc(Cc2ccccc2)nc1C#N`: “inactive”.
For `CC(C)(C)NC(=O)C(c1ccncc1)n1c(=O)c(-c2ccco2)nc2ccccc21` (configuration not stated) the value was 2.42 µM; for `O=C(O)CC(O)(CC(=O)O)C(=O)O`, 3.71 µM.
Next, `Cc1ccc(C(=O)/C=C/c2cc(Br)cc(Br)c2O)o1`: 5.75 µM; `COc1ccc(NC(=O)C(c2ccnc3ccccc23)n2c(=O)c(-c3ccco3)nc3ccccc32)cc1` (configuration not stated): 4.76 µM.
`Oc1ccc2sc(-c3ccccc3O)c(-c3ccc(OCCN4CCCCC4)cc3)c2c1`: the IC50 was 7.15 µM.
Next, `Cc1cccc(C)c1OCc1cn(CC(=O)c2ccc(O)cc2)nn1`: 2.98 µM; `NC(=O)CCN1CCN(CCOC2Cc3cc(Cl)ccc3Sc3ccccc32)CC1` (configuration not stated): “inactive”; `Cc1ccc(O)c(C(=O)/C=C/c2ccc3c(c2)OCCCO3)c1`: 4.63 µM.
Next, `CCN(CC)CCOCCOC(=O)C1(c2ccccc2)CCCC1`: 1.87 µM.
In the case of `CCc1nnc(NC(=O)c2nc(S(=O)(=O)Cc3ccccc3)ncc2Cl)s1`, the IC50 was 4.25 µM.
As to `CC1CCN(S(=O)(=O)c2ccc(NC(=O)Cc3ccccc3)cc2)CC1`, the IC50 was 5.33 µM.
With `CC(C)(C)NC(=O)C(c1ccccc1F)n1c(=O)c(-c2ccco2)nc2ccccc21` (configuration not stated), the IC50 was 2.27 µM.
Next, `Cc1cccc(C)c1NC(=O)C(c1ccnc2ccccc12)n1c(=O)c(-c2ccco2)nc2ccccc21` (configuration not stated): 3.32 µM; `COc1ccccc1/C=C/C(=O)c1ccccc1`: 6.05 µM.
For `Cc1cccc(C)c1NC(=O)C(c1ccccc1)n1c(=O)c(-c2ccco2)nc2ccccc21` (configuration not stated) the value was 3.37 µM.

Values taken from PubChem BioAssay AID651672 (The Scripps Research Institute Molecular Screening Center, 2012).
